Legend:
ICR mice [1] = test: Mouse tail-hanging experiment; type: in vivo
Text: Experiment 1: The Influence of Embodiment 3 in the Mouse Tail-Hanging Experiment 1.1 Experimental animals: ICR mice, male, 22.0±2 g of body weight, secondary, were provided by the Experimental Animal Science Department of Capital Medical University, Beijing. 1.2 Experiment pharmaceuticals: The pharmaceutical of Embodiment 3 was provided by Beijing Wonner Biotech. Ltd. Co., and Paroxetine (Paxil) was the product of Zhong Mei Tianjin Smith Kline pharmaceuticals Co. Ltd. 1.4 Dose designs: 1. High dose of Embodiment 3 (5 mg/kg/d); 2. middle dose of Embodiment 3 (2.5 mg/kg/d); and 3. low dose of Embodiment 3 (1.25 mg/kg/d). 1.5.1 Group division and administration of drug: The mice were grouped randomly, with 10 mice per group. 1. High dose of Embodiment 3 (5 mg/kg, per oral (P.O.), administered for 7 days); 2. middle dose of Embodiment 3 (2.5 mg/kg, P.O., administered for 7 days); 3. low dose of Embodiment 3 (1.25 mg/kg, P.O., administered for 7 days); 4. Paroxetine (3 mg/kg, P.O., administered for 7 days); and 5. physiological saline (P.O.). After 1 hour of the last drug administration, the mouse tail-hanging experiment was proceeded. […] The time of non-movement of the mouse for the last 5 minutes was recorded. 1.5.3 Statistic calculation: The experimental data are represented as X±SD , and the experimental result was calculated as analysis of variance (ANOVA) by SPSS 11.5 statistic software.

ICR mice [2] = test: Mouse swimming by compulsion experiment; type: in vivo
Text: Experiment 2: The Influence of Embodiment 3 in the Mouse Swimming by Compulsion Experiment 2.1 Experimental animals: ICR mice, male, 22.0±2 g body weight, secondary, were provided by the Experimental Animal Science Department of Capital Medical University, Beijing. 2.2 Experiment pharmaceuticals: The pharmaceutical of Embodiment 3 was provided by Beijing Wonner Biotech. Ltd. Co., and Paroxetine (Paxil) was the product of Zhong Mei Tianjin Smith Kline pharmaceuticals Co. Ltd. 2.4 Dose designs: 1. High dose of Embodiment 3 (5 mg/kg/d); 2. middle dose of Embodiment 3 (2.5 mg/kg/d); and 3. low dose of Embodiment 3 (1.25 mg/kg/d). 2.5.1 Group division and administration of drug: The mice were grouped randomly, with 10 mice per group. 1. High dose of Embodiment 3 (5 mg/kg, P.O., administered for 7 days); 2. middle dose of Embodiment 3 (2.5 mg/kg, P.O., administered for 7 days); 3. low dose of Embodiment 3 (1.25 mg/kg, P.O., administered for 7 days); 4. Paroxetine (3 mg/kg, P.O., administered for 7 days); and 5. physiological saline (P.O.). […] The accumulative time of non-movement of the mouse in the water for the last 5 minutes was recorded. 2.5.3 Statistic calculation: The experimental data are represented as X±SD, and the experimental result was calculated as ANOVA by SPSS 11.5 statistic software.

Fc1ccc([C@@H]2CCNC[C@H]2COc2ccc3c(c2)OCO3)cc1 [Paroxetine]
Time of non-movement (ICR mice [1]; Paroxetine 3 mg/kg P.O. for 7 days, tail hung 6 min, last 5 min recorded, 1 hour after last administration, X±SD): 67.59 ± 39.09 s
Effect on time of non-movement after the mouse's tail was hung (conclusion) (ICR mice [1]; high and middle doses of Embodiment 3, Paroxetine, significant in comparison with the physiological saline control): decreased the time of non-movement
Effect on time of non-movement in the mouse swimming by compulsion test (conclusion) (ICR mice [2]; high dose of Embodiment 3, Paroxetine): decreased the time of non-movement
immobility time (ICR mice [2]; table title: time of non-movement in swimming by compulsion, Paroxetine 3 mg/kg P.O. for 7 days, 25° C. water, last 5 minutes, X±SD): 83.4 ± 40.7 s
